From US10829481B2, “Benzimidazole derivatives as modulators of ROR-gamma” (Vitae Pharmaceuticals, LLC, priority 2016, dated 2020) come the findings set out here.

A word on the Ki: it is the equilibrium dissociation constant of an inhibitor or competing ligand from its target. The term IC50 denotes the point on the concentration scale where inhibition reaches its midpoint. Higher therefore signals weaker potency.

Experiment [1] concerns the target recombinant RORγ Ligand Binding Domain (LBD) protein (Homo sapiens (Human), UniProt P51449). Briefly: Radio-Ligand RORγ Binding Assay (Assay 1). The conditions noted are these: competition with 25-hydroxy [26,27-3H]-cholesterol, SPA. In short, it runs like this: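 Scintillation proximity competition against 25-hydroxy [26,27-^3H]-cholesterol (8.6 nM solution) for 6×His-GST-tagged RORγ LBD (24 nM solution) in HEPES pH 7.4 with CHAPS, β-octylglucopyranoside and DTT; semi-log compound dilutions, ~1 h total at rt with poly-Lys YSi beads. IC50 from four-parameter fit; Ki derived from [RL] and radioligand KD.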

Experiment [2] concerns the target full-length RORγt in Jurkat cells (Homo sapiens (Human), UniProt P51449). Briefly: RORγt 5×RORE Assay in Jurkat Cells (Assay 2). It is filed as cell-based. The conditions noted are these: 5×RORE Nanoluc luciferase reporter. A general note: Reporter assays use an easily measured gene product as a stand-in for the process of interest.

Where only a bound is given, the exact number is not on record here.

Sequence of full-length RORγt in Jurkat cells (P51449 other isoform, or with tags, fused parts or gaps): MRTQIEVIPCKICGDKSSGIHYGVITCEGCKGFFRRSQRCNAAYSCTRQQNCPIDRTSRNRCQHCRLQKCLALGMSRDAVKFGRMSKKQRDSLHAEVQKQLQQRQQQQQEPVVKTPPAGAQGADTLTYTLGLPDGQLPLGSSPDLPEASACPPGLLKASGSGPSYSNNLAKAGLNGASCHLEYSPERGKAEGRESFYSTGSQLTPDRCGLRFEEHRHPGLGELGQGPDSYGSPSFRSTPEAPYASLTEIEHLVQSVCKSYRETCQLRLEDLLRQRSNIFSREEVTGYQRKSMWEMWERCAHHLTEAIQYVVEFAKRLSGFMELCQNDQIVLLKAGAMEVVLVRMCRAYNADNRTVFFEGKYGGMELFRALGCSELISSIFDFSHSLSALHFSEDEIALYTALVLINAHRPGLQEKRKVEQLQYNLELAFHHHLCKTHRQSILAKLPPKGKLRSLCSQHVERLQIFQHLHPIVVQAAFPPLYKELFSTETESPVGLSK
Sequence of recombinant RORγ Ligand Binding Domain (LBD) protein (P51449 269-508): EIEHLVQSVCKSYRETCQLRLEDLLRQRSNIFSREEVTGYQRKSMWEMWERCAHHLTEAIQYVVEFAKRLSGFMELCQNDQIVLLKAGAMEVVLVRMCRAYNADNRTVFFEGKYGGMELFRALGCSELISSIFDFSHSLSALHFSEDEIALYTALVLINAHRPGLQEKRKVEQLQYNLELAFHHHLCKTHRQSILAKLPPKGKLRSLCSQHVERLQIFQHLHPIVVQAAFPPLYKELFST

With `CCS(=O)(=O)c1ccc(CNC(=O)c2ccc3c(c2)nc(C(F)(F)F)n3Cc2nc(C)cc(C(F)(F)F)n2)cc1` [I-138, N-(4-(ethylsulfonyl)benzyl)-1-((4-methyl-6-(trifluoromethyl)pyrimidin-2-yl)methyl)-2-(trifluoromethyl)-1H-benzo[d]imidazole-5-carboxamide], the inhibition constant (Ki) in experiment [1] was below 0.1 µM. For the same compound, in experiment [2], the IC50 fell in the range of 0.1 to 1 µM.
For `CCS(=O)(=O)c1ccc(CNC(=O)c2ccc3c(c2)nc(C(F)(F)F)n3Cc2cccc3cn(C)nc23)cc1` [I-139, N-(4-(ethylsulfonyl)benzyl)-1-((2-methyl-2H-indazol-7-yl)methyl)-2-(trifluoromethyl)-1H-benzo[d]imidazole-5-carboxamide], the Ki in experiment [1] is below 0.1 µM. The same compound displayed a concentration for half-maximal inhibition (IC50) in experiment [2] below 0.1 µM.
As for `CCS(=O)(=O)c1ccc(CNC(=O)c2ccc3c(c2)nc(C(F)(F)F)n3Cc2cccc3c2cnn3C)cc1` [I-141, N-(4-(ethylsulfonyl)benzyl)-1-((1-methyl-1H-indazol-4-yl)methyl)-2-(trifluoromethyl)-1H-benzo[d]imidazole-5-carboxamide], the Ki in experiment [1] was above 1 µM. Further, the IC50 in experiment [2] was in the range of 0.1 to 1 µM.
As to `CCS(=O)(=O)c1ccc(CNC(=O)c2ccc3c(c2)nc(C(F)(F)F)n3Cc2cccc3nn(C)cc23)cc1` [I-143, N-(4-(ethylsulfonyl)benzyl)-1-((2-methyl-2H-indazol-4-yl)methyl)-2-(trifluoromethyl)-1H-benzo[d]imidazole-5-carboxamide], the Ki in experiment [1] is below 0.1 µM. In experiment [2], this compound gave an IC50 of 0.1 to 1 µM.
As to `CCS(=O)(=O)c1ccc(CNC(=O)c2ccc3c(c2)nc(C(F)(F)F)n3Cc2cccc3ocnc23)cc1` [I-147, 1-(benzo[d]oxazol-4-ylmethyl)-N-(4-(ethylsulfonyl)benzyl)-2-(trifluoromethyl)-1H-benzo[d]imidazole-5-carboxamide], in experiment [1], the Ki was below 0.1 µM. Also, the IC50 in experiment [2] was in the range of 0.1 to 1 µM.
As to `CCS(=O)(=O)c1ccc(CNC(=O)c2ccc3c(c2)nc(C2CC2)n3Cc2cccc3c2OCCO3)cc1` [I-148, 2-cyclopropyl-1-((2,3-dihydrobenzo[b][1,4]dioxin-5-yl)methyl)-N-(4-(ethylsulfonyl)benzyl)-1H-benzo[d]imidazole-5-carboxamide], in experiment [1], the Ki is below 0.1 µM. This compound displayed an IC50 in experiment [2] above 1 µM.
Consider `CCS(=O)(=O)c1ccc(CNC(=O)c2ccc3c(c2)nc(C2CC2)n3[C@H](C)c2cccc3c2OC(F)(F)O3)cc1` [I-149, (R)-2-cyclopropyl-1-(1-(2,2-difluorobenzo[d][1,3]dioxol-4-yl)ethyl)-N-(4-(ethylsulfonyl)benzyl)-1H-benzo[d]imidazole-5-carboxamide], for which the Ki in experiment [1] is below 0.1 µM. Moreover, the IC50 in experiment [2] was below 0.1 µM.
Regarding `CCS(=O)(=O)c1ccc(CNC(=O)c2ccc3c(c2)nc(C)n3Cc2ccccc2)cc1` [I-150, 1-benzyl-N-(4-(ethylsulfonyl)benzyl)-2-methyl-1H-benzo[d]imidazole-5-carboxamide], the Ki in experiment [1] is 0.1 to 1 µM. The compound also showed an IC50 in experiment [2] above 1 µM.
On to `CCS(=O)(=O)c1ccc(CNC(=O)c2ccc3c(c2)nc(C(F)(F)F)n3Cc2cccc3nonc23)cc1` [I-151, 1-(benzo[c][1,2,5]oxadiazol-4-ylmethyl)-N-(4-(ethylsulfonyl)benzyl)-2-(trifluoromethyl)-1H-benzo[d]imidazole-5-carboxamide], for which the Ki in experiment [1] was below 0.1 µM. The compound also yielded an IC50 in experiment [2] below 0.1 µM.
Regarding `CCS(=O)(=O)c1ccc(CNC(=O)c2ccc3c(c2)nc(C(F)(F)F)n3Cc2cccc3ncoc23)cc1` [I-152, 1-(benzo[d]oxazol-7-ylmethyl)-N-(4-(ethylsulfonyl)benzyl)-2-(trifluoromethyl)-1H-benzo[d]imidazole-5-carboxamide], the Ki in experiment [1] was below 0.1 µM. For the same compound, the IC50 in experiment [2] was below 0.1 µM.
Turning to `CCS(=O)(=O)c1ccc(CNC(=O)c2ccc3c(c2)nc(C2CC2)n3Cc2cc(O)cc(OC(F)(F)F)c2)cc1` [I-153, 2-cyclopropyl-N-(4-(ethylsulfonyl)benzyl)-1-(3-hydroxy-5-(trifluoromethoxy)benzyl)-1H-benzo[d]imidazole-5-carboxamide], in experiment [1], the Ki is below 0.1 µM. Further, the IC50 in experiment [2] was below 0.1 µM.
